“Also recorded” adds a separate entry of the source.

Series [1] is described as follows: Rat liver microsomes stability. The note with it: Remaining Percentage after 60 min.
Procedure: (§1) The concentrations of parent compounds in reaction systems were evaluated by LC-MS/MS for estimating the stability in pooled human, male rat and male mouse liver microsomes. The in vitro intrinsic clearances of test compounds were determined as well. Protocol
(§2) A master solution in the “Incubation Plate” containing phosphate buffer, ultra-pure H2O, MgCl2 solution and liver microsomes was made according to Table 6. The mixture was pre-warmed at 37° C. water bath for 5 minutes.
(§3) The reaction was started with the addition of 4 μL of 200 μM exemplary test compounds of the application or control compounds to each master solution to get the final concentration of 2 μM. This study was performed in duplicate.
(§4) Aliquots of 50 μL were taken from the reaction solution at 0, 15, 30, 45 and 60 minutes. The reaction solutions were stopped by the addition of 4 volumes of cold methanol with IS (100 nM alprazolam, 200 nM imipramine, 200 nM labetalol and 2 μM ketoprofen). Samples were centrifuged at 3,220 g for 40 minutes. Aliquot of 90 μL of the supernatant was mixed with 90 μL of ultra-pure H2O and then was used for LC-MS/MS analysis.
(§5) All calculations were carried out using Microsoft Excel. Peak area ratios of test compound to internal standard (listed in the below table) were determined from extracted ion chromatograms.
(§6) All calculations were carried out using Microsoft Excel. Peak areas were determined from extracted ion chromatograms. The slope value, k, was determined by linear regression of the natural logarithm of the remaining percentage of the parent drug vs. incubation time curve.
(§7) The in vitro half-life (in vitro t½) was determined from the slope value:
(§8) Conversion of the in vitro t½ (min) into the in vitro intrinsic clearance (in vitro CLint, in μL/min/mg proteins) was done using the following equation (mean of duplicate determinations):
Series [2] is described as follows: in vitro. The note with it: human, liver microsomes, Remaining Percentage after 60 min, human liver microsomes, without cofactors. (In general: Microsomes from liver hold many membrane-bound enzymes, among them those of drug oxidation.)
Procedure: as §1, §2, §3, §4, §5, §6, §7, §8
Series [3] in a line: Mouse liver microsomes stability. The following applies: Remaining Percentage after 60 min.
Procedure: as §1, §2, §3, §4, §5, §6, §7, §8
Series [4] deals with Caco-2 cell monolayers. The series is described as follows: Intestinal mucosal permeation using Caco-2 cell monolayers. The note with it: for Efflux ratio: Papp (B→A) / Papp (A→B); for Efflux ratio / Percentage recovery A→B / Percentage recovery B→A: 120 min, 5 µM; for Papp A→B / Percentage recovery A→B: apical to basolateral; for Papp A→B / Papp B→A: 5 μM, 37° C., 2 hours, pH 7.4; for Papp B→A / Percentage recovery B→A: basolateral to apical. In general terms: Passage across Caco-2 layers is used to estimate intestinal permeability.
Procedure: The Caco-2 cell culture medium was prepared consisting of Dulbecco's Modified Eagle's Medium (DMEM) with high glucose and L-glutamine supplemented with 10% FBS, 1× penicillin-streptomycin mixture and 1× non-essential amino acids (NEAA). • 2. The 50 μL of culture medium was added to each well of the Transwell insert. Transwell insert was removed from reservoir and 25 mL of culture medium was added. • 3. Incubated at 37° C., 5% CO2 for 1 hour. Plates were ready for cell seeding. • 4. The cells were cultivated in T-75 flasks in a cell culture incubator set at 37° C., 5% CO2, 95% relative humidity. The cells were allowed to reach 80-90% confluence before detaching and splitting. • 5. The cultivated cells were rinsed in T-75 flasks with 5 mL PBS. Aspirated off, 1.5 mL trypsin/EDTA was added, and incubated at 37° C. for approximately 5 to 10 minutes or until the cells detach and float. Trypsin/EDTA was inactivated by adding excess serum containing medium. • 6. The cell suspension was moved to a conical tube and cells were pelleted by centrifugation at 120×g for 10 minutes. • 7. The cells were resuspended in seeding medium at a density of 6.86×10^5 cells/mL. This cell concentration can be used to seed 2.40×10^5 cells/cm^2. […] Seeding and Feeding of Caco-2 Cells in Transwell Plates • 1. 50 μL of above cell suspension was added to each well of a previously prepared Transwell plate. • 2. The plate was incubated for 14-18 days. The medium was replaced every other day, beginning no sooner than 48 hours after initial plating. • 3. The procedure for medium changes was as follows. The plate was removed from incubator and placed in hood. The medium was aspirated from reservoir and each Transwell insert. 75 μL of culture medium was added to each well of Transwell inserts and 25 mL of culture medium was added to reservoir tray. The plate was returned to incubator.
When the 14-day Caco-2 cultured cells have reached confluence and are differentiated, they were ready to be used for transport studies. • 2. The medium was removed from reservoir and Transwell inserts. • 3. 75 μL of pre-warmed culture medium was added to each transwell insert and 25 mL of reservoir tray. • 4. The electrical resistance across the monolayer was measured using automated tissue resistance measuring system (World Precision Instruments, Sarasota, FL). • 5. The electrical resistance was recorded for each well. • 6. Once all wells were measured, the plate was returned to incubator. • 7. TEER of each well was calculated by the equation below. The TEER value of each well should be greater than 230 ohms-cm^2. TEER measurement (ohms)×Area of membrane (cm^2)=TEER value (ohm-cm^2)
The Caco-2 plate was removed from the incubator. Next, the monolayer was washed, and the volume exchanged two times using pre-warmed HBSS (10 mM HEPES, pH 7.4). Then the plate was incubated for 30 minutes at 37° C. • 1 mM stock solutions of control compounds and test compound(s) were prepared in DMSO and diluted with HBSS (10 mM HEPES, pH 7.4) to reach the final concentration of 5 μM. The final concentration of DMSO in the incubation system was 0.5%. Digoxin, prazosin and propranolol were used as control compounds in this assay. • 3. HBSS (10 mM HEPES, pH 7.4) was removed after 30 minutes pre-incubation. • 4. The rate of drug transport was incubated in the apical to basolateral direction. 75 μL of the control compounds and test compound was added to the Transwell insert (apical compartment). The wells were filled in the receiver plate (basolateral compartment) with 235 μL of HBSS (10 mM HEPES, pH 7.4). • 5. The rate of drug transport was determined in the basolateral to apical direction. 235 μL of the control compounds and test compound(s) was added to the receiver plate wells (basolateral compartment). The Transwell insert (apical compartment) was filled with 75 μL of HBSS (10 mM HEPES, pH 7.4). • 6. […] Incubated at 37° C. for 2 hours. • 8.

The conditions of series [5]: patients; psilocybin-assisted psychotherapy or supportive setting; cited from earlier work.
The conditions of series [6]: EEG during sleep; cited from earlier work.
Series [7] has as its system 5-HT2 receptor. The following applies: rat brain, daily administration; cited from earlier work.
The test system of series [8] is brain's default mode network. The following applies: humans, intravenous; cited from earlier work.
A short description of series [9]: Rat plasma stability.
Procedure: (§9) The stock solution of test compound was prepared in DMSO and diluted at the final concentration of 200 μM.
(§10) • a. 2.5 μL of 200 μM or 1 mM test compound or control compound solution was spiked to 497.5 μL plasma to reach a final concentration of 1 μM or 5 μM. The final concentration of organic solvents was 0.5%. The assay was performed in duplicated. • b. The reaction samples were incubated at 37° C. at approximately 60 rpm in a water bath. • c. Aliquots of 50 μL were taken from the reaction samples at 0, 30, 60, 120, 180 and 240 minutes. The reaction was stopped by the addition of 7 volumes of cold acetonitrile containing internal standards (IS: 100 nM alprazolam, 200 nM imipramine, 200 nM labetalol and 2 μM ketoprofen). • d. All samples were vortexed for 2 minutes, followed by centrifugation at 3,220 g for 30 minutes to precipitate proteins. 100 μL of the supernatant was transferred to a new plate. The supernatant was diluted with ultrapure water according to the LC-MS signal response and peak shape.
(§11) Samples were Analyzed by LC-MS/MS. • LC system: Shimadzu • MS analysis: Triple Quad™ 6500+ from AB Inc (Canada) with an ESI interface • Column temperature: 40° C. • Column: Xselect® Hss T3 2.5μ (2.1×30 mm) coupled with preguard column • Mobile phase: 0.1% formic acid in water (A) and 0.1% formic acid in acetonitrile (B)
(§12) All calculations were carried out using Microsoft Excel. Remaining percentages of parent compounds at each time point were estimated by determining the peak area ratios from extracted ion chromatograms.
Series [10] is described as follows: Dog plasma stability.
Procedure: as §9, §10, §11, §12
The nature of series [11]: Human plasma stability.
Procedure: as §9, §10, §11, §12
Series [12] can be described thus: Mouse plasma stability.
Procedure: as §9, §10, §11, §12

Regarding `O=C(O)Cc1ccccc1Nc1c(Cl)cccc1Cl` [Diclofenac], the fraction remaining at 1 h, 2 µM in [1] (with cofactors) stood at 7.11%; in series [1] (without cofactors), 97.9%; in series [2] it was 95.9%; in [3] (with cofactors), 35.9%; in [3] (without cofactors) it was 97.9%.
Consider `C[C@H]1O[C@@H](O[C@H]2[C@@H](O)C[C@H](O[C@H]3[C@@H](O)C[C@H](O[C@H]4CC[C@@]5(C)[C@H](CC[C@@H]6[C@@H]5C[C@@H](O)[C@]5(C)[C@@H](C7=CC(=O)OC7)CC[C@]65O)C4)O[C@@H]3C)O[C@@H]2C)C[C@H](O)[C@@H]1O` [Digoxin], for which, in [4], the Efflux ratio was determined as 35.38, the “Papp A→B” value is 0.53 cm/s × 10^−6, the “Percentage recovery A→B” value is 86.58% and the “Papp B→A” value amounted to 18.89 cm/s × 10^−6. Further, the “Percentage recovery B→A” value in series [4] was determined as 104.27%.
Turning to `CCN(CC)C(=O)[C@@H]1C=C2c3cccc4[nH]cc(c34)C[C@H]2N(C)C1` [LSD], the “relief of depression and anxiety” value in series [5] is “significant and sustained anti-depressant and anxiolytic effects”. In addition, the sleep patterns result in series [6] is “positively affect sleep patterns”. Also, in series [7], the 5-HT2 receptor density result is reported as “selectively decreased 5-HT2 receptor density in the rat brain; also recorded: reduce 5-HT2 receptor density in rat brain”. Besides, the oscillatory power entry in [8] is “decreases in oscillatory power in areas of the brain's default mode network”.
For the compound `CC[C@H](C)C(=O)O[C@H]1C[C@@H](C)C=C2C=C[C@H](C)[C@H](CC[C@@H]3C[C@@H](O)CC(=O)O3)[C@H]21` [Lovastatin, reference compound], the “Remaining Percentage” value in series [9] (rat plasma, 0 min) stood at 100.00%. In [9] (rat, plasma), the share remaining at 0.5 h is 0%, the amount remaining at 1 h is 0%, the share remaining at 2 h came to 0% and the fraction remaining at 3 h is 0%. The amount remaining at 4 h in [9] (rat, plasma) is 0%. The “Remaining Percentage” value in [10] (dog plasma, 0 min) was 100.00%. Besides, in [10] (dog, plasma), the share remaining at 0.5 h was 101%, the amount remaining at 1 h amounted to 64.8%, the fraction remaining at 2 h came out at 40.8% and the fraction remaining at 3 h amounted to 22.4%. Besides, the fraction remaining at 4 h in [10] (dog, plasma) was 11%.
Turning to `COc1cc2nc(N3CCN(C(=O)c4ccco4)CC3)nc(N)c2cc1OC` [Prazosin], in series [4], the Efflux ratio is 3.28, the “Papp A→B” value was 10.14 cm/s × 10^−6, the “Percentage recovery A→B” value was 79.47% and the “Papp B→A” value was determined as 33.06 cm/s × 10^−6. The “Percentage recovery B→A” value in series [4] is on record as 104.81%.
As to `CC(C)[N+](C)(CCOC(=O)C1c2ccccc2Oc2ccccc21)C(C)C` [Propantheline, reference compound], in [11] (human plasma, 37° C., N.A. if no peak detected at 30 min), the T1/2 was determined as 9.53 min. Moreover, in series [11] (human, plasma), the share remaining at 0.5 h was found to be 18.7%, the share remaining at 1 h stood at 1.28%, the amount remaining at 3 h amounted to 0% and the amount remaining at 4 h came to 0%. Besides, the “Remaining Percentage” value in series [12] (mouse plasma, 0 min) turned out to be 100.00%. Further, the T1/2 in series [12] (mouse plasma, 37° C., N.A. if no peak detected at 30 min) was 34.36 min. For the same compound, in series [12] (mouse, plasma), the fraction remaining at 0.5 h was 65.3%, the fraction remaining at 1 h amounted to 32.5%, the share remaining at 2 h came out at 9.12% and the amount remaining at 3 h came to 2.9%. The amount remaining at 4 h in series [12] (mouse, plasma) is 0.87%.
As for `CC(C)NCC(O)COc1cccc2ccccc12` (stereo not drawn) [Propranolol], in series [4], the Efflux ratio amounted to 0.69, the “Papp A→B” value turned out to be 33.5 cm/s × 10^−6, the “Percentage recovery A→B” value came out at 91.34% and the “Papp B→A” value is reported as 23.09 cm/s × 10^−6. In [4], the “Percentage recovery B→A” value turned out to be 92.59%.

These data come from patent US20260327250A1, “3-ETHYLAMINO-INDOLE DIMERS AS SEROTONERGIC AGENTS USEFUL FOR THE TREATMENT OF DISORDERS RELATED THERETO” (MINDSET PHARMA INC., priority 2022, published 2026).
